Earlier results on one compound are cited in patent US10154669B2, “Improving color and release profile of resin compositions comprising silver nanoparticles” (The Board of Regents of the University of Texas System, priority 2013, dated 2018).

SMILES strings stand for the structures.

For this series the following is noted: in water.

In the case of `C=C(C)C(=O)OC` [methyl methacrylate], the water solubility result is “about 1.6 g in 100 g of water”.
